According to patent publication US10653679B2, “Compositions and methods for inhibiting bacterial growth” (priority 2015, dated 2020):
Entries after “also recorded” stand apart in the source; their conditions may differ. Like-named read-outs stand apart in the source and are kept apart here.

Experiments:
PhoPR regulon [1] = assay: cells; format: cell-based, Mycobacterium tuberculosis
Mtb CDC1551(aprA′::GFP) = format: cell-based, Mycobacterium tuberculosis
WT Mtb CDC1551 = assay: Cytoplasmic pH measurement
Esx-1 protein export = assay: Analysis of Esx-1 protein export (Western blot); format: cell-based, Mycobacterium tuberculosis; settings: Mtb Erdman, Sauton's medium, ETZ 80 μM
PhoPR regulon [2] = assay: microbe, parasite or virus in culture; format: cell-based; settings: Mycobacterium tuberculosis
PhoPR regulon [3] = assay: Semi-quantitative real-time PCR of phoP, aprA and pks2; format: cell-based, Mycobacterium tuberculosis
PhoPR regulon [4] = assay: Quantitative single-cell imaging of reporter fluorescence in infected mouse lungs; settings: ETZ treated lungs, 100 mg/kg oral, 4 weeks
Description: (§1) C57BL/6 mice were infected via the intranasal route with 1000 CFU of the Erdman (aprA′::GFP smyc′::mCherry) dual fluorescent reporter. […] After 4 weeks, the right lung was homogenized and plated for enumeration of the bacterial load and the left lung was fixed in 4% paraformaldehyde before being transferred to 30% sucrose for confocal microscopy and pathology evaluation (FIG. 8). This experiment was repeated and the data from the two independent biological replicates were similar and therefore combined. […] Mice were euthanized by carbon dioxide asphyxiation followed by cervical dislocation.
PFA fixed mouse lungs were frozen in a 30% sucrose PBS pH 7.4 solution, frozen in a dry ice, ethanol bath, and stored at −80° C. until imaging. At the time of imaging, lungs were thawed and hand-sectioned using a sterile scalpel. Sections were transferred to a microscope slide and 10 μL of ProLong® Gold antifade reagent (Invitrogen) was added. […] Settings for GFP and mCherry fluorescence were held constant through the image acquisition to allow for comparison between samples. For quantification of Mtb reporter fluorescence, bacilli were identified in the mCherry channel and the corresponding sum of GFP fluorescence was measured using the Volocity software package (Perkin Elmer). At least 1500 bacilli were counted across multiple fields of view and lungs.

PhoPR regulon [5] = assay: RNA-seq transcriptional profiling; format: cell-based, Mycobacterium tuberculosis
Mtb lipid synthesis = assay: Analysis of mycobacterial lipids (14C radio-TLC); settings: 80 μM ETZ
BMDMs = assay: Phagosome acidification (pHrodo labeled beads in BMDMs); settings: ETZ up to 100 μM, 4 h pre-treatment, 100 minutes
[6] = tested on: Mtb-associated granulomatous pneumonia; assay: Lung histopathology of infected mice; settings: ETZ 100 mg/kg vs CMC treated animals
Description: as §1
For histopathology, transverse sections of each lung specimen was fixed in 4% paraformaldehyde for 48 hours, transferred to 50% ethanol for 4 hours, processed routinely, embedded in paraffin, and sectioned at 4 μm, followed by routine hematoxylin and eosin staining.

[7] = in animals, previously reported, cited from earlier work

SMILES: CCOc1ccc2nc(S(N)(=O)=O)sc2c1 [ETZ, 6-ethoxy-1,3-benzothiazole-2-sulfonamide]
- inhibition of reporter GFP fluorescence in infected macrophages (PhoPR regulon [1]): significantly down-regulates
- inhibition at 100 µM (PhoPR regulon [1]; Mycobacterium tuberculosis, BMDM, read-out: inhibition of reporter GFP fluorescence in infected macrophages): > 90%
- effect on growth (Mtb CDC1551(aprA′::GFP); pH 5.7, across the range of ETZ concentrations tested): mostly unaffected; also recorded: little effect on growth
- effect on growth (Mtb CDC1551(aprA′::GFP); pH 7.0): little effect on growth
- acidification of cytoplasm (WT Mtb CDC1551; ETZ 80 μM, 6 days, medium pH 5.7): < 0.1 pH units
- change of cytoplasmic pH (WT Mtb CDC1551; ETZ 80 μM, 6 days, medium pH 7.0): no change
- acidification of cytoplasmic pH (WT Mtb CDC1551; ETZ treated Mtb): slight acidification
- ESAT-6 and CFP-10 expression (Esx-1 protein export): did not affect
- secretion of ESAT-6 and CFP-10 (Esx-1 protein export): strongly and selectively reduced; also recorded: inhibits the secretion
- secretion of Sec-secreted protein Mpt-32 (Esx-1 protein export): did not alter
- EC50 (PhoPR regulon [2]; 144 h, pH 5.7, read-out: EC50 of inhibition of CDC1551(aprA′::GFP) reporter fluorescence): 5.6 µM
- EC50 (PhoPR regulon [2]; pH 7, read-out: EC50 of inhibition of aprA′::GFP reporter fluorescence): 4.7 µM
- regulation of phoP gene expression (PhoPR regulon [3]): did not exhibit substantial differential regulation
- down-regulation of aprA (PhoPR regulon [3]; both pH 7.0 and 5.7): > 5 fold
- down-regulation of pks2 (PhoPR regulon [3]; both pH 7.0 and 5.7): > 5 fold
- Mtb cells in the bottom decile of GFP fluorescence (PhoPR regulon [4]): 49%
- down-regulation of espR and the espACD operon (PhoPR regulon [5]): > 1.5 fold
- down-regulation of mmpL8-pks2 operon (Rv3823c-Rv3825c) (PhoPR regulon [5]; ETZ at acidic pH): ~5 fold
- accumulation of sulfolipid (SL) (Mtb lipid synthesis): not detected; also recorded: lack of accumulation
- phagosome acidification (BMDMs): did not alter phagosome acidification
- percent lung area affected (Mtb-associated granulomatous pneumonia) [6]: did not have a significant reduction; also recorded: no significant difference
- drug-related organ lesions ([7]; 100 mg/kg): no observable drug-related organ lesions
- LD50 [7]: ~1000 mg/kg
- half-life [7]: 2.5 to 5.5 h
